Results from publication PMC7818921, “Synthesis and biological evaluation of heterocyclic 1,2,4-triazole scaffolds as promising pharmacological agents” (BMC Chemistry, 2021).
Values after ≈ are worked out from the molar mass of the structure shown. Values joined by “and” are separate entries in the source; they are usually repeats but may differ in a detail not shown here. Identical values can stand only once. Like-named read-outs stand apart in the source and are kept apart here.

Assays:
[1] = tested on: Bacillus subtilis; assay: In vitro antimicrobial screening, tube dilution method; assay type: cell-based; details: B. substilis, Gram +ve, nutrient broth, 37 ± 1 °C, 24 h, read-out: Minimum inhibitory concentration
Experimental: (§1) The in vitro antimicrobial screening of the synthesized 1,2,4-triazole derivatives (T1–T20) in μM was determined against Gram-positive Bacillus subtilis, […], Gram-negative Escherichia coli bacterium and fungal strains Candida albicans and Aspergillus niger by tube dilution method using ciprofloxacin, amoxycillin (antibacterial) and fluconazole (antifungal) as reference drugs. DMSO was used to dissolve the reference and sample derivatives (T1–T20). Dilutions were prepared in nutrient broth (I.P.) for bacterial (incubated at 37 ± 1 °C for 24 h) and Sabouraud dextrose broth (I.P.) for fungal species (37 ± 1 °C for 48 h for C. albicans) and (25 ± 1 °C for 7 days for A. niger) (Table 3, Figs. 4 and 5).

[2] = tested on: Escherichia coli; assay: as above; assay type: cell-based; details: E. coli, Gram −ve, nutrient broth, 37 ± 1 °C, 24 h, read-out: Minimum inhibitory concentration
Experimental: as §1

[3] = tested on: Pseudomonas aeruginosa; assay: as above; assay type: cell-based; details: P. aeruginosa, Gram −ve, nutrient broth, 37 ± 1 °C, 24 h, read-out: Minimum inhibitory concentration
Experimental: as §1

[4] = tested on: Aspergillus niger; assay: In vitro antifungal screening, tube dilution method; assay type: cell-based; details: A. niger, Sabouraud dextrose broth, 25 ± 1 °C, 7 days, read-out: Minimum inhibitory concentration
Experimental: as §1

[5] = tested on: Candida albicans; assay: as above; assay type: cell-based; details: C. albican, Sabouraud dextrose broth, 37 ± 1 °C, 48 h, read-out: Minimum inhibitory concentration
Experimental: as §1

[6] = DPPH free radical scavenging activity; details: for IC50: DPPH antioxidant; for % inhibition: DPPH
Experimental: In the DPPH free radical scavenging activity, compounds (T1–T20) were evaluated for their free radical scavenging activity with ascorbic acid as standard compound. The scavenging effect increased with the increasing concentrations of sample compounds. DPPH is relatively stable nitrogen centered free radical that easily accepts an electron or hydrogen radical to become a stable diamagnetic molecule. DPPH radicals react with suitable reducing agents as a result of which the electrons become paired off forming the corresponding hydrazine. The solution therefore loses colour stoichometrically depending on the number of electrons taken up. […] The sample solutions were incubated for 30 min at room temperature in dark place and after then absorbance was recorded against the blank solution at 517 nm. The relative percent of DPPH scavenging activity was calculated according to the following equation: I%=Acontrol-Asample/Acontrol×100,
where Acontrol is the absorbance of the control, Asample is the absorbance of the test compound.

[7] = target: Jack Bean Urease (Canavalia ensiformis, UniProt P07374); assay: biochemical; details: for % inhibition: urease
Jack Bean Urease, sequence (P07374 whole entry, looked up): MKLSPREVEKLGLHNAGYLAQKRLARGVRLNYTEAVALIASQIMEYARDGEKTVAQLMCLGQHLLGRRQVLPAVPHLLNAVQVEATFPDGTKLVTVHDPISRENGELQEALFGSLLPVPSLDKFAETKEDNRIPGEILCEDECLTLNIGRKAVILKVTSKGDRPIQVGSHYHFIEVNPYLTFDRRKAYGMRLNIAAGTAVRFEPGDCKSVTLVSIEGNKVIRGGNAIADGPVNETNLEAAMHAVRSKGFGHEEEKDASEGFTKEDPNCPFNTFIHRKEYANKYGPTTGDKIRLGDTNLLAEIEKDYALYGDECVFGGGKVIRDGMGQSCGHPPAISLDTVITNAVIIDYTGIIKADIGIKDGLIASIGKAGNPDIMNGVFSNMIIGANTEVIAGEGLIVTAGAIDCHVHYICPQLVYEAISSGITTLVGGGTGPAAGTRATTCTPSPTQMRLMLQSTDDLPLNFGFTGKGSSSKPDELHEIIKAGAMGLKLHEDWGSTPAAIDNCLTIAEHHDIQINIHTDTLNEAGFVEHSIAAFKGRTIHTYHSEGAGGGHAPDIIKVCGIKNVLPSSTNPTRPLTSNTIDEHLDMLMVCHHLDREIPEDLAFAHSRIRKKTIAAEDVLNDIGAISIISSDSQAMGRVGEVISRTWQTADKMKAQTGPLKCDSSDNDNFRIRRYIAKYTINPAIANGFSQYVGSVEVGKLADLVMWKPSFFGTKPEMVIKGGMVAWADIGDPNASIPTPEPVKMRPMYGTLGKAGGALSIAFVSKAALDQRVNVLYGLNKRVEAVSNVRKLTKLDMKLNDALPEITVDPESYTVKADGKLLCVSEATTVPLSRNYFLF
Experimental: Urease inhibitory potential for each synthesisized compound (T1–T20) was evaluated using Jack Bean Urease by Indophenol method (Table 5, Figs. 9, 10, 11). 250 µl of jack bean urease (4U) was mixed with 250 µl of different synthesized test compounds and standard of different concentrations [dissolved in DMSO/H2O mixture (1:1 v/v)]. The mixture was pre-incubated for 1 h at 37 °C in test tubes. 2 ml of 100 mM phosphate buffer (pH 6.8) containing 500 mM urea and 0.002% phenol red as an indicator were added in sample test tubes after pre incubation and again incubated at room temperature. Absorbance of reaction mixture was recorded by ELISA at 570 nm. Ammonium carbonate increased the pH of phosphate buffer from 6.8 to 7.7 which was produced from urea by urease enzyme and the end peak was measured by the colour of phenol red indicator [16].
The percentage inhibition of urease enzyme was calculated by using following formula: I%=Acontrol-Asample/Acontrol×100,
where Acontrol is the absorbance of the control; Asample is the absorbance of the test compound.

[8] = tested on: HCT116 (human colon cancer cells); assay: Anticancer evaluation, SRB assay; assay type: cell-based
Experimental: HCT116 (human colon cancer cells) were seeded at 2500 cells/well (96 well plate), allowed to attach overnight, exposed to the respective compounds for 72 h and subjected to SRB assay (570 nm). Data represent mean IC50 of at least triplicates. The compounds were all dissolved in DMSO as stock of 100 mg/ml. […] The highest concentration of each compound tested (100 μg/ml) contained only 0.1% DMSO.

[9] = Homo sapiens, HCT-116, HCT116, 72 h, SRB, mean of at least triplicates
[10] = Homo sapiens, HCT-116, HCT116, value given in dose-response figure
[11] = HCT116, 72 h, SRB, mean of at least triplicates

SMILES | MIC ([1]; Bacillus subtilis) [µM] | MIC ([2]; Escherichia coli) [µM] | MIC ([3]; Pseudomonas aeruginosa) [µM] | MIC ([4]; Aspergillus niger, 168 h) [µM] | MIC ([5]; Candida albicans) [µM] | IC50 [6] [µg/mL] | % inhibition ([6]; 25 µg/ml) [%] | % inhibition ([6]; 50 µg/ml) [%] | % inhibition ([6]; 75 µg/ml) [%] | % inhibition ([6]; 100 µg/ml) [%] | IC50 [7] [µM] | inhibition at 25 µg/mL [7] [%] | inhibition at 50 µg/mL [7] [%] | inhibition at 75 µg/mL [7] [%] | inhibition at 100 µg/mL [7] [%] | IC50 [8, 9] [µM] | melting point [°C] | further results
CCCCCCCCCCCCCCCc1nnc(S)n1N=Cc1ccc(Cl)cc1 [Compound T11] | 55.6 (≈ 25 µg/mL) | 111 (≈ 50 µg/mL) | 111 (≈ 50 µg/mL) | 111 (≈ 50 µg/mL) | 27.8 (≈ 12.5 µg/mL) | 45.36 (≈ 101 µM) | 35.78 | 52.89 | 70.89 | 89.9 | 122 | 25 | 42.5 | 68.9 | 92.7 | > 223 | 202 to 205 | –
CCCCCCCCCCCCCCCc1nnc(S)n1N=Cc1cccc([N+](=O)[O-])c1 [Compound T16] | 109 (≈ 50 µg/mL) | 218 (≈ 100 µg/mL) | 109 (≈ 50 µg/mL) | 218 (≈ 100 µg/mL) | 218 (≈ 100 µg/mL) | 41.30 (≈ 89.8 µM) | 43.65 | 51.45 | 67.26 | 81.76 | 115 | 45.8 | 49.1 | 53.9 | 59.1 | 169 | 199 to 202 | –
NC(N)=S [Thiourea, reference compound] | – | – | – | – | – | – | – | – | – | – | – | – | – | – | – | – | – | IC50 ([7]; urease inhibition): 54.25 µg/mL; % inhibition ([7]; 25 µg/ml): 29.98%; % inhibition ([7]; 50 µg/ml): 46.76%; % inhibition ([7]; 75 µg/ml): 67.78%; % inhibition ([7]; 100 µg/ml): 76.78%
CCCCCCCCCCCCCCCc1nnc(S)n1N=Cc1ccc(Cl)cc1Cl [Compound T12] | 103 (≈ 50 µg/mL) | 103 (≈ 50 µg/mL) | 51.7 (≈ 25 µg/mL) | 103 (≈ 50 µg/mL) | 207 (≈ 100 µg/mL) | 39.56 (≈ 81.8 µM) | 44.45 | 51.45 | 68.56 | 70.61 | 120 | 43.6 | 46.6 | 52.6 | 61.6 | > 207 | 211 to 214 | –
CCCCCCCCCCCCCCCc1nnc(S)n1N=Cc1ccccc1O [Compound T7] | 116 (≈ 50 µg/mL) | 116 (≈ 50 µg/mL) | 29 (≈ 12.5 µg/mL) | 232 (≈ 100 µg/mL) | 232 (≈ 100 µg/mL) | 38.54 (≈ 89.5 µM) | 46.75 | 52.56 | 60.56 | 70.41 | 121 | 24 | 46.9 | 76.1 | 91.9 | 3.25 | 181 to 184 | MIC [3]: 29.0 µM (≈ 12.5 µg/mL); IC50 [8, 10]: 1.4 µg/mL
OC(Cn1cncn1)(Cn1cncn1)c1ccc(F)cc1F [Fluconazole, reference compound] | – | – | – | 20.4 (≈ 6.25 µg/mL) | 40.8 (≈ 12.5 µg/mL) | – | – | – | – | – | – | – | – | – | – | – | – | –
CCCCCCCCCCCCCCCc1nnc(S)n1N=Cc1ccco1 [Compound T20] | – | – | – | – | – | 46.34 (≈ 115 µM) | 33.45 | 53.67 | 70.46 | 92.67 | – | – | – | – | – | – | – | MIC [1]: 61.7 µM (≈ 25 µg/mL); MIC [2]: 61.7 µM (≈ 25 µg/mL); MIC [3]: 123.5 µM (≈ 50 µg/mL); MIC [4]: 247.1 µM (≈ 100 µg/mL); MIC [5]: 247.1 µM (≈ 100 µg/mL); IC50 ([7]; urease inhibition): 52.34 µg/mL; % inhibition ([7]; 25 µg/ml): 28.98%; % inhibition ([7]; 50 µg/ml): 49.09%; % inhibition ([7]; 75 µg/ml): 69.09%; % inhibition ([7]; 100 µg/ml): 81.90%; IC50 [8, 11]: > 247 µM
O=c1[nH]cc(F)c(=O)[nH]1 [Compound 5-FU, Fluorouracil, reference compound] | – | – | – | – | – | – | – | – | – | – | – | – | – | – | – | 25.4 | – | IC50 [8, 10]: 3.3 µg/mL
O=C1O[C@H]([C@@H](O)CO)C(O)=C1O [Ascorbic acid, reference compound] | – | – | – | – | – | 35.44 (≈ 201 µM) | 38.67 | 63.68 | 84.78 | 94.45 | – | – | – | – | – | – | – | –
CCCCCCCCCCCCCCCc1nnc(S)n1N=Cc1cc(OC)c(OC)c(OC)c1 [Compound T5] | 24.7 (≈ 12.5 µg/mL) | 24.7 (≈ 12.5 µg/mL) | 12.3 (≈ 6.21 µg/mL) | 99 (≈ 50 µg/mL) | 12.3 (≈ 6.21 µg/mL) | 39.13 (≈ 77.5 µM) | 42.34 | 55.67 | 68.98 | 78.12 | 108 | 23.3 | 44.4 | 70.9 | 90.9 | > 198 | – | MIC [4]: 99.0 µM (≈ 50 µg/mL)
CCCCCCCCCCCCCCCc1nnc(S)n1N=Cc1c(O)ccc2ccccc12 [Compound T18] | – | – | – | – | – | – | 39.59 | 68.57 | 80.13 | 95.89 | – | – | – | – | – | – | – | MIC [1]: 104.0 µM (≈ 50 µg/mL); MIC [2]: 104.0 µM (≈ 50 µg/mL); MIC [3]: 52.0 µM (≈ 25 µg/mL); MIC [4]: 104 µM and 104.0 µM; MIC [5]: 208 µM and 208.0 µM; IC50 ([7]; urease inhibition): 54.30 µg/mL; % inhibition ([7]; 25 µg/ml): 40.90%; % inhibition ([7]; 50 µg/ml): 46.79%; % inhibition ([7]; 75 µg/ml): 55.89%; % inhibition ([7]; 100 µg/ml): 67.9%; IC50 [8, 11]: > 208 µM
